Results taken from patent publication EP3002006A1, “Pharmaceutical composition capable for the incorporation Febuxostat in the crystalline modifications F10, II, G and A” (Bluepharma - Industria Farmacêutica, S.A., priority 2014, dated 2016).
Values after ≈ are worked out from the molar mass of the structure shown. Where two headings read alike, the source gives them in different places.

Key:
[1] = Solubility of crystalline modifications of Febuxostat in phosphate buffer; type: physicochemical
[2] = In-vitro dissolution of tablets, Ph. Eur. 2.9.3 / USP <711> Method 2 (Paddle Apparatus); type: physicochemical; details: Figures 2 and 3; same excipient mixture as example 1
Procedure: The in-vitro dissolution of tablets according to examples 2 to 5 were analyzed according to Ph. […]

Compound	Solubility ([1]; n=3)	influence on dissolution profile of interchange of crystalline form F10 by another crystalline form [2]	Solubility ([1]; aqueous buffer, n=3, read-out: Solubility)
Cc1nc(-c2ccc(OCC(C)C)c(C#N)c2)sc1C(=O)O [Form "A", 2-[3-cyano-4-(2-methylpropoxy)phenyl]-4-methylthiazole-5-carboxylic acid]	0,10 mg/ml	does not influence the dissolution profile significantly	
Cc1nc(-c2ccc(OCC(C)C)c(C#N)c2)sc1C(=O)O [Form "II", 2-[3-cyano-4-(2-methylpropoxy)phenyl]-4-methylthiazole-5-carboxylic acid]	0,36 mg/ml	does not influence the dissolution profile significantly	
Cc1nc(-c2ccc(OCC(C)C)c(C#N)c2)sc1C(=O)O [Form "G", 2-[3-cyano-4-(2-methylpropoxy)phenyl]-4-methylthiazole-5-carboxylic acid]	0,13 mg/ml	does not influence the dissolution profile significantly	
Cc1nc(-c2ccc(OCC(C)C)c(C#N)c2)sc1C(=O)O [Form "F10", 2-[3-cyano-4-(2-methylpropoxy)phenyl]-4-methylthiazole-5-carboxylic acid]			260 µg/mL (≈ 822 µM)
